Measurements from patent US20140031278A1, “Novel Glucagon Analogues” (NOVO NORDISK A/S, priority 2011, published 2014).
*1 amine or outer side, *2 acyl side, *3 side chain or, on linkers, in order; H or OH if unused. Where a SMILES comes first, the peptide text is derived from it. Side-chain parts run from the residue outwards. γGlu = O=C(O)[C@H](CCC(=O)[*:2])N[*:1]

What follows are compounds tested against T1, glucagon receptor (Homo sapiens, UniProt P47871) (assay: Assay (I) Glucagon activity (cAMP biosensor, FLIPR)). Settings: HEK-293 cells with cloned glucagon receptor and cAMP biosensor; end point after 6 minutes.
T1 construct: expressed in transfected cells
Assay type: cell-based
Method: The glucagon receptor was cloned into HEK-293 cells having a membrane bound cAMP biosensor (ACTOne™). The cells (14000 per well) were incubated (37° C., 5% CO2) overnight in 384-well plates. Next day the cells were loaded with a calcium responsive dye that only distributed into the cytoplasm. Probenecid, an inhibitor of the organic anion transporter, was added to prevent the dye from leaving the cell. A PDE inhibitor was added to prevent formatted cAMP from being degraded, The plates were placed into a […] and the glucagon analogues were added. End point data were collected after 6 minutes. An increase in intracellular cAMP was proportional to an increased in calcium concentrations in the cytoplasm. When calcium was bound the dry a fluorescence signal was generated. EC50-values were calculated in Prism5.

T1 sequence (P47871 26-477): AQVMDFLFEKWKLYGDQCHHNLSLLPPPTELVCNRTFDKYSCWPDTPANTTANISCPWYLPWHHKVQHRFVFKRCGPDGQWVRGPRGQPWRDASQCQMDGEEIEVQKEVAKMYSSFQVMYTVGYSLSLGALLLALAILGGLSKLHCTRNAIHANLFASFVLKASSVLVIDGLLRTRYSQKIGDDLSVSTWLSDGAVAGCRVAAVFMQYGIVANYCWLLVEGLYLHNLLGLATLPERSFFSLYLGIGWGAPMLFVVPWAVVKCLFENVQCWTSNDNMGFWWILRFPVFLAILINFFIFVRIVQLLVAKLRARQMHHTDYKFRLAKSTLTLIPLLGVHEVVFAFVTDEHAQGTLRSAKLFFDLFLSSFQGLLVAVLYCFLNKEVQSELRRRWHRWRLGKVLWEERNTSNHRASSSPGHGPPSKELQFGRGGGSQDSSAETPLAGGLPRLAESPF

Compound | EC50 [nM]
CC(=O)N[C@@H](CCC(=O)N[C@@H](CCC(=O)N[C@@H](CCC(=O)N[C@@H](CCC(=O)NCCCC[C@H](NC(=O)[C@@H](NC(=O)[C@H](Cc1ccccc1)NC(=O)[C@H](CC(=O)O)NC(=O)[C@H](C)NC(=O)[C@H](C)NC(=O)[C@H](CCCNC(=N)N)NC(=O)[C@H](CCCNC(=N)N)NC(=O)[C@@H](NC(=O)[C@H](CC(=O)O)NC(=O)[C@H](CC(C)C)NC(=O)[C@H](Cc1ccc(O)cc1)NC(=O)[C@H](CCCCN)NC(=O)[C@H](CO)NC(=O)[C@H](Cc1ccc(O)cc1)NC(=O)[C@H](CC(=O)O)NC(=O)[C@H](CO)NC(=O)[C@@H](NC(=O)[C@H](Cc1ccccc1)NC(=O)[C@@H](NC(=O)CNC(=O)[C@H](Cc1c[nH]cn1)NC(=O)[C@H](CO)NC(=O)[C@@H](N)Cc1c[nH]cn1)[C@@H](C)O)[C@@H](C)O)C(C)C)C(C)C)C(=O)N[C@@H](Cc1c[nH]c2ccccc12)C(=O)N[C@@H](CC(C)C)C(=O)N[C@@H](CC(C)C)C(=O)N[C@@H](CO)C(=O)N[C@H](C(=O)O)[C@@H](C)O)C(=O)O)C(=O)O)C(=O)O)C(=O)O [Example 10, N^ε24-[(4S)-4-[[(4S)-4-[[(4S)-4-[[(4S)-4-acetamido-4-carboxybutanoyl]amino]-4-carboxybutanoyl]amino]-4-carboxybutanoyl]amino]-4-carboxybutanoyl]-[His3,Val16,Ala20,Lys24,Leu27,Ser28]-Glucagon] (H-HSHGTFTSDYSKYLDVRRAADFVK([γGlu-γGlu-γGlu-γGlu-Ac])WLLST-OH) | 0.0167
CC[C@H](C)[C@H](NC(=O)[C@H](CC(=O)O)NC(=O)[C@H](CC(C)C)NC(=O)[C@H](Cc1ccc(O)cc1)NC(=O)[C@H](CCCCN)NC(=O)[C@H](CO)NC(=O)[C@H](Cc1ccc(O)cc1)NC(=O)[C@H](CC(=O)O)NC(=O)[C@H](CO)NC(=O)[C@@H](NC(=O)[C@H](Cc1ccccc1)NC(=O)[C@@H](NC(=O)CNC(=O)[C@H](Cc1c[nH]cn1)NC(=O)[C@H](CO)NC(=O)[C@@H](N)Cc1c[nH]cn1)[C@@H](C)O)[C@@H](C)O)C(=O)N[C@@H](CCCNC(=N)N)C(=O)N[C@@H](CCCNC(=N)N)C(=O)N[C@@H](C)C(=O)N[C@@H](C)C(=O)N[C@@H](CC(=O)O)C(=O)N[C@@H](Cc1ccccc1)C(=O)N[C@H](C(=O)N[C@@H](CCCCNC(=O)CC[C@H](NC(=O)CC[C@H](NC(=O)CC[C@H](NC(=O)CC[C@H](NC(C)=O)C(=O)O)C(=O)O)C(=O)O)C(=O)O)C(=O)N[C@@H](Cc1c[nH]c2ccccc12)C(=O)N[C@@H](CC(C)C)C(=O)N[C@@H](CC(C)C)C(=O)N[C@@H](CO)C(=O)N[C@H](C(=O)O)[C@@H](C)O)C(C)C [Example 11] (H-HSHGTFTSDYSKYLDIRRAADFVK([γGlu-γGlu-γGlu-γGlu-Ac])WLLST-OH) | 0.0124
CC(=O)N[C@@H](CCC(=O)N[C@@H](CCC(=O)N[C@@H](CCC(=O)N[C@@H](CCC(=O)NCCCC[C@H](NC(=O)[C@@H](NC(=O)[C@H](Cc1ccccc1)NC(=O)[C@H](CC(=O)O)NC(=O)[C@H](CCC(N)=O)NC(=O)[C@H](C)NC(=O)[C@H](CCCNC(=N)N)NC(=O)[C@H](CCCNC(=N)N)NC(=O)[C@H](CO)NC(=O)[C@H](CCC(=O)O)NC(=O)[C@H](CC(C)C)NC(=O)[C@H](Cc1ccc(O)cc1)NC(=O)[C@H](CCCCN)NC(=O)[C@H](CO)NC(=O)[C@H](Cc1ccc(O)cc1)NC(=O)[C@H](CC(=O)O)NC(=O)[C@H](CO)NC(=O)[C@@H](NC(=O)[C@H](Cc1ccccc1)NC(=O)[C@@H](NC(=O)CNC(=O)[C@H](CCC(N)=O)NC(=O)[C@H](CO)NC(=O)[C@@H](N)Cc1c[nH]cn1)[C@@H](C)O)[C@@H](C)O)C(C)C)C(=O)N[C@@H](Cc1c[nH]c2ccccc12)C(=O)N[C@@H](CC(C)C)C(=O)N[C@@H](CC(C)C)C(=O)N[C@@H](CC(N)=O)C(=O)N[C@H](C(=O)O)[C@@H](C)O)C(=O)O)C(=O)O)C(=O)O)C(=O)O [Example 17, N^ε24-[(4S)-4-[[(4S)-4-[[(4S)-4-[[(4S)-4-acetamido-4-carboxybutanoyl]amino]-4-carboxybutanoyl]amino]-4-carboxybutanoyl]amino]-4-carboxybutanoyl]-[Glu15,Lys24,Leu27]-Glucagon] | 0.0165
CC(=O)N[C@@H](CCC(=O)N[C@@H](CCC(=O)N[C@@H](CCC(=O)N[C@@H](CCC(=O)NCCCC[C@H](NC(=O)[C@@H](NC(=O)[C@H](Cc1ccccc1)NC(=O)[C@H](CC(=O)O)NC(=O)[C@H](CCC(N)=O)NC(=O)[C@H](C)NC(=O)[C@H](CCCNC(=N)N)NC(=O)[C@H](CCCNC(=N)N)NC(=O)[C@H](CO)NC(=O)[C@H](CC(=O)O)NC(=O)[C@H](CC(C)C)NC(=O)[C@H](Cc1ccc(O)cc1)NC(=O)[C@H](CCCCN)NC(=O)[C@H](CO)NC(=O)[C@H](Cc1ccc(O)cc1)NC(=O)[C@H](CC(=O)O)NC(=O)[C@H](CO)NC(=O)[C@@H](NC(=O)[C@H](Cc1ccccc1)NC(=O)[C@@H](NC(=O)CNC(=O)[C@H](Cc1c[nH]cn1)NC(=O)[C@H](CO)NC(=O)[C@@H](N)Cc1c[nH]cn1)[C@@H](C)O)[C@@H](C)O)C(C)C)C(=O)N[C@@H](Cc1c[nH]c2ccccc12)C(=O)N[C@@H](CC(C)C)C(=O)N[C@@H](CC(C)C)C(=O)N[C@@H](CC(N)=O)C(=O)N[C@H](C(=O)O)[C@@H](C)O)C(=O)O)C(=O)O)C(=O)O)C(=O)O [Example 19, N^ε24-[(4S)-4-[[(4S)-4-[[(4S)-4-[[(4S)-4-acetamido-4-carboxybutanoyl]amino]-4-carboxybutanoyl]amino]-4-carboxybutanoyl]amino]-4-carboxybutanoyl]-[His3,Lys24,Leu27]-Glucagon] | 0.0145

Now those with a lower EC50, led by results:

EC50 [nM] | Compound
0.0103 | CC(=O)N[C@@H](CCC(=O)N[C@@H](CCC(=O)N[C@@H](CCC(=O)N[C@@H](CCC(=O)NCCCC[C@H](NC(=O)[C@@H](NC(=O)[C@H](Cc1ccccc1)NC(=O)[C@H](CC(=O)O)NC(=O)[C@H](C)NC(=O)[C@H](C)NC(=O)[C@H](CCCNC(=N)N)NC(=O)[C@H](CCCNC(=N)N)NC(=O)[C@H](Cc1ccccc1)NC(=O)[C@H](CC(=O)O)NC(=O)[C@H](CC(C)C)NC(=O)[C@H](Cc1ccc(O)cc1)NC(=O)[C@H](CCCCN)NC(=O)[C@H](CO)NC(=O)[C@H](Cc1ccc(O)cc1)NC(=O)[C@H](CC(=O)O)NC(=O)[C@H](CO)NC(=O)[C@@H](NC(=O)[C@H](Cc1ccccc1)NC(=O)[C@@H](NC(=O)CNC(=O)[C@H](Cc1c[nH]cn1)NC(=O)[C@H](CO)NC(=O)[C@@H](N)Cc1c[nH]cn1)[C@@H](C)O)[C@@H](C)O)C(C)C)C(=O)N[C@@H](Cc1c[nH]c2ccccc12)C(=O)N[C@@H](CC(C)C)C(=O)N[C@@H](CC(C)C)C(=O)N[C@@H](CO)C(=O)N[C@H](C(=O)O)[C@@H](C)O)C(=O)O)C(=O)O)C(=O)O)C(=O)O [Example 12, N^ε24-[(4S)-4-[[(4S)-4-[[(4S)-4-[[(4S)-4-acetamido-4-carboxybutanoyl]amino]-4-carboxybutanoyl]amino]-4-carboxybutanoyl]amino]-4-carboxybutanoyl]-[His3,Phe16,Ala20,Lys24,Leu27,Ser28]-Glucagon] (H-HSHGTFTSDYSKYLDFRRAADFVK([γGlu-γGlu-γGlu-γGlu-Ac])WLLST-OH)
0.0065 | CC(=O)N[C@@H](CCC(=O)N[C@@H](CCC(=O)N[C@@H](CCC(=O)N[C@@H](CCC(=O)NCCCC[C@H](NC(=O)[C@@H](NC(=O)[C@H](Cc1ccccc1)NC(=O)[C@H](CC(=O)O)NC(=O)[C@H](CCC(N)=O)NC(=O)[C@H](C)NC(=O)[C@H](CCCNC(=N)N)NC(=O)[C@H](CCCNC(=N)N)NC(=O)[C@@H](NC(=O)[C@H](CC(=O)O)NC(=O)[C@H](CC(C)C)NC(=O)[C@H](Cc1ccc(O)cc1)NC(=O)[C@H](CCCCN)NC(=O)[C@H](CO)NC(=O)[C@H](Cc1ccc(O)cc1)NC(=O)[C@H](CC(=O)O)NC(=O)[C@H](CO)NC(=O)[C@@H](NC(=O)[C@H](Cc1ccccc1)NC(=O)[C@@H](NC(=O)CNC(=O)[C@H](CCC(N)=O)NC(=O)[C@H](CO)NC(=O)[C@@H](N)Cc1c[nH]cn1)[C@@H](C)O)[C@@H](C)O)C(C)C)C(C)C)C(=O)N[C@@H](Cc1c[nH]c2ccccc12)C(=O)N[C@@H](CC(C)C)C(=O)N[C@@H](CC(C)C)C(=O)N[C@@H](CC(N)=O)C(=O)N[C@H](C(=O)O)[C@@H](C)O)C(=O)O)C(=O)O)C(=O)O)C(=O)O [Example 16, N^ε24-[(4S)-4-[[(4S)-4-[[(4S)-4-[[(4S)-4-acetamido-4-carboxybutanoyl]amino]-4-carboxybutanoyl]amino]-4-carboxybutanoyl]amino]-4-carboxybutanoyl]-[Val16,Lys24,Leu27]-Glucagon]
0.0055 | CC(=O)N[C@@H](CCC(=O)N[C@@H](CCC(=O)N[C@@H](CCC(=O)N[C@@H](CCC(=O)NCCCC[C@H](NC(=O)[C@@H](NC(=O)[C@H](Cc1ccccc1)NC(=O)[C@H](CCC(=O)O)NC(=O)[C@H](CCC(N)=O)NC(=O)[C@H](C)NC(=O)[C@H](CCCNC(=N)N)NC(=O)[C@H](CCCNC(=N)N)NC(=O)[C@H](CO)NC(=O)[C@H](CCC(=O)O)NC(=O)[C@H](CC(C)C)NC(=O)[C@H](Cc1ccc(O)cc1)NC(=O)[C@H](CCCCN)NC(=O)[C@H](CO)NC(=O)[C@H](Cc1ccc(O)cc1)NC(=O)[C@H](CC(=O)O)NC(=O)[C@H](CO)NC(=O)[C@@H](NC(=O)[C@H](Cc1ccccc1)NC(=O)[C@@H](NC(=O)CNC(=O)[C@H](CCC(N)=O)NC(=O)[C@H](CO)NC(=O)[C@@H](N)Cc1c[nH]cn1)[C@@H](C)O)[C@@H](C)O)C(C)C)C(=O)N[C@@H](Cc1c[nH]c2ccccc12)C(=O)N[C@@H](CC(C)C)C(=O)N[C@@H](CC(C)C)C(=O)N[C@@H](CO)C(=O)N[C@H](C(=O)O)[C@@H](C)O)C(=O)O)C(=O)O)C(=O)O)C(=O)O [Example 22, N^ε24-[(4S)-4-[[(4S)-4-[[(4S)-4-[[(4S)-4-acetamido-4-carboxybutanoyl]amino]-4-carboxybutanoyl]amino]-4-carboxybutanoyl]amino]-4-carboxybutanoyl]-[Glu15,Glu21,Lys24,Leu27,Ser28]-Glucagon] (H-HSQGTFTSDYSKYLESRRAQEFVK([γGlu-γGlu-γGlu-γGlu-Ac])WLLST-OH)
